#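 48-hour exposure; five concentrations; linearly interpolated endpoints. GI50 marks 50% less growth. Definition used: TGI = concentration required for complete inhibition of growth.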
# Legend:
# Assay in all cases: NCI-60 cell line screen, 48 h
# A549 NSCLC = system: A549 NSCLC
# DU-145 prostate = system: DU-145 prostate
# HCC-2998 colon = system: HCC-2998 colon
# HOP-92 NSCLC = system: HOP-92 NSCLC
# HT29 colon = system: HT29 colon
# NCI-H460 lung = system: NCI-H460 lung
# SK-OV-3 ovarian = system: SK-OV-3 ovarian
# SR leukemia = system: SR leukemia
# TK-10 renal = system: TK-10 renal
# U251 CNS = system: U251 CNS
Structure (SMILES),TGI (A549 NSCLC) [µM],TGI (DU-145 prostate) [µM],TGI (HCC-2998 colon) [µM],TGI (HOP-92 NSCLC) [µM],TGI (HT29 colon) [µM],TGI (NCI-H460 lung) [µM],TGI (SK-OV-3 ovarian) [µM],TGI (SR leukemia) [µM],TGI (TK-10 renal) [µM],TGI (U251 CNS) [µM],GI50 (A549 NSCLC) [µM],GI50 (DU-145 prostate) [µM],GI50 (HCC-2998 colon) [µM],GI50 (HOP-92 NSCLC) [µM],GI50 (HT29 colon) [µM],GI50 (NCI-H460 lung) [µM],GI50 (SK-OV-3 ovarian) [µM],GI50 (SR leukemia) [µM],GI50 (TK-10 renal) [µM],GI50 (U251 CNS) [µM]
O=C1CSC(/C(=C\c2ccc(Cl)cc2)c2nc3ccccc3[nH]2)=N1,16.4,26.2,17.7,25.1,46.5,32.2,24.1,94.4,24.8,25.6,,,,,,,,,,
C#CC1(O)C(COP(=O)(O)OC2CC(n3cc(F)c(=O)[nH]c3=O)OC2CO)OC(n2ccc(N)nc2=O)C1O (stereo not drawn),> 54.4,3.62,0.431,3.75,> 100,> 32.1,> 100,0.142,> 42.8,> 100,< 0.01,< 0.011,< 0.01,< 0.0242,< 0.0139,< 0.01,0.0735,< 0.01,0.0273,< 0.0138
CCCCCCCCCCN(CCCCCCCCCC)CC(=O)c1ccc2cc(Br)c3ccccc3c2c1,14.4,10.3,3.16,5.12,2.77,3.98,17.6,4.19,3.26,3.55,4.15,3.69,1.73,1.88,1.32,1.98,4.94,1.3,1.76,1.91
COC(=O)c1sc(C(=O)OC)c2c1CSC2,> 100,> 100,> 100,> 93.6,> 100,> 100,> 100,> 100,> 100,> 81,,,,,,,,,,
CC(=O)O[C@H]1CC[C@@]2(C)C(=CC[C@H]3[C@@H]4C/C(=C\c5cccc(OCCN6CCOCC6)c5)[C@H](OC(C)=O)[C@@]4(C)CC[C@@H]32)C1,20.5,> 100,17.6,16.8,5.11,20.7,34,18.6,48.7,16.6,5.05,23.3,5.32,4.32,2.16,6.39,6.85,5.47,11.6,4.58
O=C(Nc1ccc(F)cc1)c1c(NC(=O)C(F)(F)F)sc2c1CCCCC2,12,87.1,10,1.38,13.5,10,6.37,> 100,12.5,> 100,2.64,3.43,2.06,0.269,2.48,2.13,2.05,1.29,3.96,1.73
COC1CC2C=C(C)/C=C/C=C/C(=O)NC(c3ccccc3)C/C=C/CCC(O)CC(=O)C2=C1O (stereo not drawn),1.15,1.57,1.94,0.457,0.854,1.19,1.46,0.794,1.31,0.994,0.241,0.405,0.558,0.141,0.238,0.24,0.369,0.0956,0.298,0.153
O=C(NCCCNc1cc(-c2cn(-c3ccccc3)nc2-c2cccc(O)c2)ccn1)c1ccccc1,34.4,96.5,3.69,24.5,5.23,18.7,92.8,5.35,52.6,21,4.62,5.29,1.92,1.7,1.71,3.61,6.63,1.68,8.39,4.12
CCOC(=O)C(=Cc1ccccc1[N+](=O)[O-])C(=O)OCC,17.5,12,10.7,8.8,9.39,10.8,12.7,30.1,15.7,13.1,4.05,3.22,3.48,3.67,3.27,3.25,3.51,2.07,5.39,3.65
N=C(N=C(N)N)N1CCN(c2ccncc2)CC1,> 1000,> 1000,> 1000,> 1000,> 1000,> 1000,> 1000,> 1000,> 1000,,> 1000,> 1000,> 1000,> 1000,> 1000,> 1000,> 1000,> 1000,> 1000,
CC/C=C\C[C@H](O)C/C=C1/C(=O)C=C[C@@H]1C/C=C\CCCC(=O)N(C)C,11.3,15.4,3.2,7.12,2.97,7.4,15.6,12.3,7.48,3.91,3.01,3.27,1.77,2.56,0.853,2.37,4.36,0.376,2.61,1.32
Cc1cc(C)c(C[N+](C)(C)C)c(C)c1C,39.1,11.4,12.4,13.5,17.4,> 100,11.2,> 41.1,12.1,34.7,0.281,0.347,0.521,0.285,0.388,0.367,0.499,0.821,0.528,0.307
NNc1cccc(/C=C/c2ccccc2)cc1=O,> 100,> 100,> 100,70.7,> 100,42.3,> 100,> 100,> 100,> 100,7.78,7.04,16.8,8.71,10.7,3.61,19.8,3.85,50.6,6.93

# Reference: PubChem BioAssay (NCI)
